Test results published in patent publication EP0431784A2, “Methods for treating retroviral infection” (ELI LILLY AND COMPANY, priority 1989, dated 1991).
Where a SMILES comes first, the peptide text is derived from it. [ ]: non-standard residue; d: D form. Phe(4-NH2) = Nc1ccc(C[C@H](N)C(=O)O)cc1; Sta = CC(C)C[C@H](N)[C@@H](O)CC(=O)O

Test system: HIV-1 protease
Details: for potency relative to the P-9 peptide: protease inhibitor potency compared with P-9 as standard
Method: A 100 µl control reaction was established containing 10 to 20 µI of crude protease, about 2 µl of the gag supernatant and final concentrations of 50 mM MES Buffer (pH 5.5), 1 mM DTT and 25 mM NaCI. Inhibition assays were performed by pre-incubating the crude protease with an inhibitory compound at room temperature for about 30 minutes before adding the gag supernatant to the reaction. Both the control and the experimental reactions were incubated from three to sixteen hours at 37° C. The reactions were then electrophoresed and blotted onto nitrocellulose filters. Monoclonal antibodies which recognize epitopes on p24 and p17 viral proteins were contacted with the filter then visualized using standard biotinylation or radionuclear techniques. Compounds which prevented the maturation of the gag polypeptide into mature viral proteins p24 and p17 were then ranked according to their HIV-1 protease inhibitory activity.
About 10 to 20 µl of the crude protease lysate was mixed with about 2 µl of the gag supernatant. The mixture was then brought to a total volume of 100 µl by the addition of distilled water, MES buffer (2-(N-Morpholino]ethanesulfonic acid) (pH 5.5 to a total concentration of 50 mM), DTT (dithiolthreitol) (to a total concentration of 1 mM) and NaCl (to a total concentration of 25 mM). This reaction mixture was mixed gently then incubated from 3 hours to overnight at 37° C.
Next, about 25 µl of the reaction was mixed with loading buffer and subjected to polyacrylamide gel electrophoresis on a 12.5% Laemmli gel under reducing conditions. The proteins were transferred onto a nitrocellulose filter using standard "Western Blot" electrophoresis at 500 mAmps for 35 minutes at room temperature. The filter was air-dried, then non-specific immunoreaction was blocked by washing the filter for 30 minutes at 4° C in a solution of 3% non-fat dry milk powder in phosphate buffered saline (PBS).
Monoclonal antibodies against p17 and/or p24 (available from Dupont, Wilmington, Delaware) were added to about 40 ml of the 3% milk/PBS solution to a final concentration of 2 µg/ml. The nitrocellulose filter was added to the antisera solution and slowly rocked for 2 hours at 4 C. The filter then was removed and washed 5 times with PBS, then the maturation of the gag gene was determined by reaction with 1^125- labeled protein A or by reaction with biotinylated anti-mouse lgG antibodies (Vecta Stain@).
To run the I^125-labeled protein A reaction, about 10 µCi of I^125-labeled protein A was added to 100 ml of the 3% milk/PBS solution. The filter was rocked in this solution for 2 hours at 4° C, washed three times with PBS, then two times with PBS and 0.1% Tween 20. The filter was then air-dried and exposed to x-ray film for autoradiography.
The Vecta Stain@ (Vector Laboratories, Burlingome, California) procedure was performed according to the manufacturer's recommendations. Four drops of the biotinylated IgG was added to 40 mls of the 3% Milk/PBS solution, then the filter was rocked in this solution for 60 minutes at 4° C. The filter was washed five times with PBS, then rocked for 30 to 60 minutes at 4 C in Reagent ABC. Reagent ABC was prepared by adding 4 drops of Reagent A (Avidin DH) and 4 drops of Reagent B (biotinylated peroxidase) to 20 ml of 3% Milk/PBS. The filter was then washed five times with PBS, then the filter was developed by washing it for 5 to 10 minutes in 10 ml of PBS containing 0.02% H202 and 10 ml of 4-chloro-1 naphthol. When the color was fully developed, the filter was washed with distilled water and air-dried.
Following the procedure, it is simple to determine the activity of the HIV-1 protease encoded on plasmid pHP10D and produced in E. coli cells.

| SMILES | HIV protease inhibitory activity (result in words) | potency relative to the P-9 peptide | further results |
| --- | --- | --- | --- |
| CC(=O)N[C@H](C(=O)N[C@@H](CC(C)C)[C@@H](O)CC(=O)N[C@@H](CC(C)C)C(=O)N[C@@H](Cc1ccccc1)C(N)=O)C(C)C [Ac-Val-Statine-Leu-Phe-NH2] (Ac-V[Sta]LF-NH2) | inactive | – | – |
| COc1ccc(C[C@H](NC(C)=O)C(=O)N[C@@H](Cc2ccccc2)C(=O)N[C@H](C(=O)N[C@@H](CC(C)C)[C@@H](O)CC(=O)N[C@@H](CC(C)C)C(=O)N[C@@H](Cc2ccccc2)C(=O)N[C@@H](Cc2ccc(O)cc2)C(=O)N[C@@H](CC(C)C)C(N)=O)C(C)C)cc1 [Ac-YOM-Phe-Val-Statine-Leu-Phe-Tyr-Leu-NH2] (Ac-Y(Me)FV[Sta]LFYL-NH2) | totally inactive | – | – |
| CC(C)C[C@H](NC(=O)C[C@H](O)[C@H](CC(C)C)NC(=O)[C@@H](NC(=O)[C@H](Cc1ccccc1)NC(=O)[C@@H]1CCCN1C(=O)[C@H](Cc1ccc(N)cc1)NC(=O)[C@@H]1CCCN1)C(C)C)C(=O)N[C@@H](Cc1ccccc1)C(=O)N[C@@H](Cc1ccc(N)cc1)C(N)=O [P-1, H-Pro-paF-Pro-Phe-Val-Statine-Leu-Phe-paF-NH2] (H-P[Phe(4-NH2)]PFV[Sta]LF[Phe(4-NH2)]-NH2) | – | – | potency relative to the R,S-diastereomer (P-28) ((S,S) Statine versus R,S-Sta peptide): 20 times |
| COc1ccc(C[C@H](NC(C)=O)C(=O)N2CCC[C@H]2C(=O)N[C@@H](Cc2ccccc2)C(=O)N[C@H](C(=O)N[C@@H](CC(C)C)[C@@H](O)CC(=O)N[C@@H](CC(C)C)C(=O)N[C@@H](Cc2ccccc2)C(N)=O)C(C)C)cc1 [P-9, Ac-YOM-Pro-Phe-Val-Statine-Leu-Phe-NH2] (Ac-Y(Me)PFV[Sta]LF-NH2) | – | – | potency relative to P-7 (protease inhibitor potency compared with P-7): increases the potency three to four times |
| COc1ccc(C[C@H](NC(=O)[C@H](Cc2ccc(O)cc2)NC(=O)CNC(C)=O)C(=O)N2CCC[C@H]2C(=O)N[C@@H](Cc2ccccc2)C(=O)N[C@H](C(=O)N[C@@H](CC(C)C)[C@@H](O)CC(=O)N[C@@H](CC(C)C)C(=O)N[C@@H](Cc2ccccc2)C(N)=O)C(C)C)cc1 [P-29, Ac-Gly-Tyr-YOM-Pro-Phe-Val-Statine-Leu-Phe-NH2] (Ac-GYY(Me)PFV[Sta]LF-NH2) | – | three times more potent | – |
| COc1ccc(C[C@H](NC(C)=O)C(=O)N2CCC[C@H]2C(=O)N[C@@H](Cc2ccccc2)C(=O)N[C@H](C(=O)N[C@@H](CC(C)C)[C@@H](O)CC(=O)N[C@@H](CC(C)C)C(=O)N[C@@H](Cc2ccccc2)C(=O)N[C@@H](Cc2ccc(O)cc2)C(=O)N[C@@H](CC(C)C)C(N)=O)C(C)C)cc1 [P-30, Ac-YOM-Pro-Phe-Val-Statine-Leu-Phe-Tyr-Leu-NH2] (Ac-Y(Me)PFV[Sta]LFYL-NH2) | – | about 1.5 times | – |
